The source made the active and inactive calls.
Experiments:
[1] = target: Intestinal-type alkaline phosphatase (Homo sapiens, UniProt P09923); test: Dose Response confirmation of uHTS hits from a small molecule inhibitors of human intestinal alkaline phosphatase via a luminescent assay. [Related pubchem assays (depositor defined):AID2544, AID2574]; type: functional
[2] = target: T1, Eukaryotic translation initiation factor 2-alpha kinase 3 (Homo sapiens, UniProt Q9NZJ5); test: Counterscreen assay for PERK inhibitors: Dose response cell-based high throughput screening assay to measure inhibition of PERK at 6 hours. [Related pubchem assays: 1522, 1416 ]; type: functional
T1 sequence (Q9NZJ5 whole entry): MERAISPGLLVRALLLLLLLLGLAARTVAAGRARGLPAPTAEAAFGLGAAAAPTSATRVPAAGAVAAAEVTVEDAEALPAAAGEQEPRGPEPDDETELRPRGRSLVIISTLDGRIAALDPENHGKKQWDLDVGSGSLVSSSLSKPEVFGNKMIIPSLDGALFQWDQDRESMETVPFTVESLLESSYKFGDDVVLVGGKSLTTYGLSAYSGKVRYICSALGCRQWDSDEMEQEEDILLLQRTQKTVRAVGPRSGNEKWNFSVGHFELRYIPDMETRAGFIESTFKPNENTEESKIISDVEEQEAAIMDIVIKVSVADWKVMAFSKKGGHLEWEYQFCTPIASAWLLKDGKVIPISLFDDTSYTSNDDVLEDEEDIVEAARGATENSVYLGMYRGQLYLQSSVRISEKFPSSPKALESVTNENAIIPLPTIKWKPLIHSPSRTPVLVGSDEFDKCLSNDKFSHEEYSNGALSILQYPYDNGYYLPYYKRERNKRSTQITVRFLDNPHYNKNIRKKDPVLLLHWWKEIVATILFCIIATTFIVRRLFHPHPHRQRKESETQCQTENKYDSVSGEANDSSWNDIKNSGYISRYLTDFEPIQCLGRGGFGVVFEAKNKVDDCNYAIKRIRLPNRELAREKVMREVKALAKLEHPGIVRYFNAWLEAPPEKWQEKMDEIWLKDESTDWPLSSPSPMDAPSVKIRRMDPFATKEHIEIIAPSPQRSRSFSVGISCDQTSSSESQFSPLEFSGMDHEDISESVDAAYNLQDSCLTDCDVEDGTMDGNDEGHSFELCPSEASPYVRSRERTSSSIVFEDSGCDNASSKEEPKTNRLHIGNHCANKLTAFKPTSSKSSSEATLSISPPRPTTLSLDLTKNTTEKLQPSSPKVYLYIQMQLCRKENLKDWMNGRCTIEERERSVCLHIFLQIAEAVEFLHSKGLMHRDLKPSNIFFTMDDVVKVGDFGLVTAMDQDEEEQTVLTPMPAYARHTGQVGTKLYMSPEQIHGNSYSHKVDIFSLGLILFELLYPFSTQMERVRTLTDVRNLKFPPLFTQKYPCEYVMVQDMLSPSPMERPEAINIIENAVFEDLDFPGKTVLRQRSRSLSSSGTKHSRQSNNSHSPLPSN

[3] = target: T1, Eukaryotic translation initiation factor 2-alpha kinase 3; test: Dose response cell-based high-throughput screening assay to measure PERK inhibition. [Related pubchem assays: 1416 ]; type: functional
[4] = target: Lysosomal acid glucosylceramidase (Homo sapiens, UniProt P04062); test: Dose response cell-based high throughput screening assay to identify enhancers of beta-glucosidase activity. [Related pubchem assays: 784 ]; type: functional
[5] = test system: Streptococcus; test: Luminescence Microorganism-Based Dose Response Follow up to Identify Compounds Cytotoxic to Streptococcus. [Related pubchem assays: 1677 (Project Summary), 1915, 1914, 1902 (Retest at Dose), 1900 (Counter Screen), 1662 (Primary HTS)]; type: functional, organism-based
[6] = target: Glyceraldehyde-3-phosphate dehydrogenase (Homo sapiens, UniProt P04406)
[7] = target: Oxytocin receptor (Homo sapiens, UniProt P30559); test: Fluorescence-based cell-based high throughput dose response assay for agonists of the Oxytocin Receptor (OXTR). [Related pubchem assays: 2435 (Primary screen (OXTR agonists in singlicate)), 434991 (Counterscreen (V1R agonists in triplicate)), 2482 (Summary (OXTR agonists)), 434963 (Confirmation screen (OXTR agonists in triplicate))]; type: functional
[8] = target: Vasopressin V1a receptor (Homo sapiens, UniProt P37288); test: Counterscreen for Oxytocin Receptor (OXTR) agonists: Fluorescence-based cell-based high throughput dose response assay to identify agonists of the vasopressin 1 receptor (V1R). [Related pubchem assays: 2435 (Primary screen (OXTR agonists in singlicate)), 434991 (Counterscreen (V1R agonists in triplicate)), 2482 (Summary (OXTR agonists)) …; type: functional
[9] = target: Scavenger receptor class B member 1 (Mus musculus, UniProt Q61009); test: mouse SR-BI DiI-HDL uptake blockers – ldlA[mSR-BI] cells, fluorescence, cherry pick, dose response (AID 493194); type: functional, cell-based;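 note: cellular uptake of fluorescent DiI-labeled HDL measured as cell fluorescence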
[10] = target: Eukaryotic translation initiation factor 4H (Homo sapiens, UniProt Q15056); test: inhibitors of translation initiation factor eIF4H – SAR follow-up (AID 435011); type: functional
[11] = target: Polyadenylate-binding protein 1 (Homo sapiens, UniProt P11940); test: PABP inhibition in translation initiation, SAR follow-up (AID 435018); type: functional
[12] = target: T2, High affinity choline transporter 1 (Homo sapiens, UniProt Q9GZV3); test: human choline transporter blockers, potency – cell-based, 5-point CRC, membrane potential dye, dose response (AID 504840); type: functional
T2 sequence (Q9GZV3 whole entry): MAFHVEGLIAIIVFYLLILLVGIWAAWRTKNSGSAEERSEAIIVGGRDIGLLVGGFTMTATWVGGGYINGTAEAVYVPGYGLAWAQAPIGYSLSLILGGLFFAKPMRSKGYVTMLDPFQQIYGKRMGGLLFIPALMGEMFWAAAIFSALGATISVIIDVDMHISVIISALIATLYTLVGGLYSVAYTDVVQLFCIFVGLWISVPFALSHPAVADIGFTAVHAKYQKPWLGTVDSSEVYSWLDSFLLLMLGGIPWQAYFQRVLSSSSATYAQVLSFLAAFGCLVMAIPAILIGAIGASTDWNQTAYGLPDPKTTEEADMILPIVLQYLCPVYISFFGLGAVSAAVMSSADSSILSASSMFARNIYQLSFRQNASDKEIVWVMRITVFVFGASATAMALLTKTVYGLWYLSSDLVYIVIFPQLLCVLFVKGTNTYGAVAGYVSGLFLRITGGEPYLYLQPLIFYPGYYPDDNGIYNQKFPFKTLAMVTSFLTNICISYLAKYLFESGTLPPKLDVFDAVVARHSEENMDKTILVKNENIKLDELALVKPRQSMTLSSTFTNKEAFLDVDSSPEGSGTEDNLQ

[13] = CCR5-tropic HIV-1 fusion blockers – cell-based, CCR5-tropic Env, dose response (AID 2279); type: functional
[14] = target: T3, Cysteine protease ATG4B (Homo sapiens, UniProt Q9Y4P1); type: functional;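 note: Fluorescence-based dose-response confirmation assay measuring inhibition of ATG4B activity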
T3 sequence (Q9Y4P1 whole entry): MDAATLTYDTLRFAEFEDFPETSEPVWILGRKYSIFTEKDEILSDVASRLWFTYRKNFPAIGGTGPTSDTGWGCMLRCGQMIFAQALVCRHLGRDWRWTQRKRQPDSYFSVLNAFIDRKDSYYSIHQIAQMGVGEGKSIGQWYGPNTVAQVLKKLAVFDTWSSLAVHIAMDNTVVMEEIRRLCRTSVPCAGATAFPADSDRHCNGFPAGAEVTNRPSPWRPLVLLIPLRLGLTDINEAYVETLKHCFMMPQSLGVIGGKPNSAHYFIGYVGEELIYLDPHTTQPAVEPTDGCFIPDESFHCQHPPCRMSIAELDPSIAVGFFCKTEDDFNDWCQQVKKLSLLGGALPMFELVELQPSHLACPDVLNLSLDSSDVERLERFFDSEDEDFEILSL

[15] = target: Phospholipase A2 (Homo sapiens, UniProt P04054); type: functional;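 note: confirmatory dose-response counterscreen on phospholipase A2, testing hits that came from an ultra-high-throughput screen for ATG4B inhibitors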
[16] = target: FAD-linked sulfhydryl oxidase ALR (Homo sapiens, UniProt P55789); test: ALR-catalysed DTT oxidation blockers – biochemical, H2O2 detection, luminescence, cherry-pick, dose response (AID 493248)
[17] = target: T4, Corticotropin-releasing factor receptor 2/Corticotropin-releasing factor-binding protein (Homo sapiens, UniProt P24387+Q13324); test: activators of CRF receptor 2 with binding protein – uHTS hits, confirmation (AID 602473); type: functional; conditions: read-out: EC50_Mean
T4 sequence (Q13324 whole entry): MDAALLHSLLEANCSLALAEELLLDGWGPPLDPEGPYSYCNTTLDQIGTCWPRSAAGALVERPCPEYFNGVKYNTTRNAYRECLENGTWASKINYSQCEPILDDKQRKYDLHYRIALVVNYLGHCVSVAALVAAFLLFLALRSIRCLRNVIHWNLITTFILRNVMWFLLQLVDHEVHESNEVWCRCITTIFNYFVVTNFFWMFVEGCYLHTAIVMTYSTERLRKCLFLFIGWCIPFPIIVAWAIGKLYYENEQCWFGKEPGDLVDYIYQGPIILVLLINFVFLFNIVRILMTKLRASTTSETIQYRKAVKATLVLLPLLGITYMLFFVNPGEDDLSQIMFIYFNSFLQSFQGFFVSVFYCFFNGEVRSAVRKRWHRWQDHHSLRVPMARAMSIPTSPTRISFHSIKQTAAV
T4 sequence (P24387 whole entry): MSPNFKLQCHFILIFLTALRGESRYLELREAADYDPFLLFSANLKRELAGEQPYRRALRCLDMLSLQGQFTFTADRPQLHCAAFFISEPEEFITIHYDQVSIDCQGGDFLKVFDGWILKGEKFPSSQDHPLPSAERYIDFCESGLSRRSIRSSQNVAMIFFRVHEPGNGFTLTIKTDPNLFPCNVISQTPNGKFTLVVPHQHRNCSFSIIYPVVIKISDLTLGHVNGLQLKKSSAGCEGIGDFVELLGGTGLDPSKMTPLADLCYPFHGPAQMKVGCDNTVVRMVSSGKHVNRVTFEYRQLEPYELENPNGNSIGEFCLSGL

[18] = target: T5, Sentrin-specific protease 1 (Homo sapiens, UniProt Q9P0U3); test: SENP1 catalytic domain blockers, concentration series – biochemical, kinetic FRET, dose response (AID 651697); type: functional; conditions: read-out: IC50_Mean
T5 sequence (Q9P0U3 whole entry): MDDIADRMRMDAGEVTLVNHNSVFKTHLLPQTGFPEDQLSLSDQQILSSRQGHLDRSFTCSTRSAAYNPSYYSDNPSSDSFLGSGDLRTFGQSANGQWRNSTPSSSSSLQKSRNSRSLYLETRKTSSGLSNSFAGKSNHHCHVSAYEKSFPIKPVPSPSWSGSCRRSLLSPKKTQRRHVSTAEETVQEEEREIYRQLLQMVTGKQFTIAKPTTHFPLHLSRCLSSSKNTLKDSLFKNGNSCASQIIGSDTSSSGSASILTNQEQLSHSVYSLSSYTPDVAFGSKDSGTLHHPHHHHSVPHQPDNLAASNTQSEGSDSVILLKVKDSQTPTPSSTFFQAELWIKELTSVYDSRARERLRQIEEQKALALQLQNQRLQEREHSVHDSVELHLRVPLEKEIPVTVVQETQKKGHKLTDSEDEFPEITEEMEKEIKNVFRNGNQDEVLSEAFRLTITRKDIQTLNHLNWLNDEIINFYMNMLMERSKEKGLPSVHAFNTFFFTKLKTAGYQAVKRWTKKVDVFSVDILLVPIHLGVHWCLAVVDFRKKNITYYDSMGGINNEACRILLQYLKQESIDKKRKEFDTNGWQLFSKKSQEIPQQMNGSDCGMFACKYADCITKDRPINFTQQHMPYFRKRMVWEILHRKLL

[19] = target: T5, Sentrin-specific protease 1; test: Dose response confirmation of small molecule inhibitors of the catalytic domain of the SUMO protease, SENP1 in a FRET assay.; type: functional; conditions: read-out: IC50_Mean
[20] = target: DNA dC->dU-editing enzyme APOBEC-3G (Homo sapiens, UniProt Q9HC16); test: Dose Response confirmation of small molecule APOBEC3G DNA Deaminase Inhibitors via a fluorescence-based single-stranded DNA deaminase assay. [Related pubchem assays (depositor defined):AID493012, AID493028]; type: functional
[21] = target: DNA dC->dU-editing enzyme APOBEC-3A (Homo sapiens, UniProt P31941); test: A3A deaminase inhibition for selectivity – biochemical, dose response (AID 504722); type: functional
DNA dC->dU-editing enzyme APOBEC-3A, sequence (P31941 whole entry): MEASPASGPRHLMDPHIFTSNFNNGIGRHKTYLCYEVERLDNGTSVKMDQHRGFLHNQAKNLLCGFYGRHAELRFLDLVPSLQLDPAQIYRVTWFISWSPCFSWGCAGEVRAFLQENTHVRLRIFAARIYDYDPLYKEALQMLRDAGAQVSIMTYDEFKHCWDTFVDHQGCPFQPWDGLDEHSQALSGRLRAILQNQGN

Oxytocin receptor, sequence (P30559 whole entry): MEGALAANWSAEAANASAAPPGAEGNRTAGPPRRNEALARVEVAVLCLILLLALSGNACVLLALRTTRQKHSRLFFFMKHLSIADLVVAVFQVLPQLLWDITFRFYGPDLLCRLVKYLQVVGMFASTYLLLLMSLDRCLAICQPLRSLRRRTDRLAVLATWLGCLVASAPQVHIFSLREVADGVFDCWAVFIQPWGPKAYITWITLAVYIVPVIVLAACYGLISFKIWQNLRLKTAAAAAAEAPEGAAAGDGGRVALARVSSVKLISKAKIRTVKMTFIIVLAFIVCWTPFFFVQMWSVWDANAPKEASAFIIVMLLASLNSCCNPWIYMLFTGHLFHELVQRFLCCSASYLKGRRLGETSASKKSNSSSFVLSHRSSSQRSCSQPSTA
Polyadenylate-binding protein 1, sequence (P11940 whole entry): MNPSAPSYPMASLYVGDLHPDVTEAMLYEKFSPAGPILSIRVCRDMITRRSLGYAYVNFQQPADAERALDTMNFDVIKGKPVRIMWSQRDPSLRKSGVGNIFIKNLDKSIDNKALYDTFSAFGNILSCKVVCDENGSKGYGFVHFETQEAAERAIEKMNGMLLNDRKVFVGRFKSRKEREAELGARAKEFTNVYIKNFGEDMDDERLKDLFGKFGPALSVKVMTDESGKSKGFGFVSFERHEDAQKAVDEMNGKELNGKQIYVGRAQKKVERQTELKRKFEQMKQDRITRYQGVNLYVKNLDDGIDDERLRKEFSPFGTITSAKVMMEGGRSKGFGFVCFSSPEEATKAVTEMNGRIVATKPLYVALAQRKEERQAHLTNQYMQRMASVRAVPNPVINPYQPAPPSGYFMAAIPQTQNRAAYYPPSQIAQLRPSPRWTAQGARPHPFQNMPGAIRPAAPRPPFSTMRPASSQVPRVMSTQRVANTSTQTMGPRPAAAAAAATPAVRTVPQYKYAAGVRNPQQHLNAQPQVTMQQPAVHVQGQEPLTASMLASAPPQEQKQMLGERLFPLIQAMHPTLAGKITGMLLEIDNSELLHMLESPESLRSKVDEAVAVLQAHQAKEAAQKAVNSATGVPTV
Intestinal-type alkaline phosphatase, sequence (P09923 whole entry): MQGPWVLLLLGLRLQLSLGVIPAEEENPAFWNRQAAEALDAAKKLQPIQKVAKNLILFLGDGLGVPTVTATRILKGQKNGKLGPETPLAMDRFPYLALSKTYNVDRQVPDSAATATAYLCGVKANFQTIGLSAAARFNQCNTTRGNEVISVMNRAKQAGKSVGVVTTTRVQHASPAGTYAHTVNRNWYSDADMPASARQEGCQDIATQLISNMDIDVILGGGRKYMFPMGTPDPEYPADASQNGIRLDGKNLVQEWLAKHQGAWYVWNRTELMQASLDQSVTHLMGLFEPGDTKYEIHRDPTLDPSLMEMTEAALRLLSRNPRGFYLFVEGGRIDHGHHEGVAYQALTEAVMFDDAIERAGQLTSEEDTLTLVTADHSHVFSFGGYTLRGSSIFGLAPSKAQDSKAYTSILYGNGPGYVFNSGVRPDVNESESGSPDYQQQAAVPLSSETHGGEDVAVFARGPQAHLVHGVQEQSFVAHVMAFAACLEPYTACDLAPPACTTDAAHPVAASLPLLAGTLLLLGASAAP
Vasopressin V1a receptor, sequence (P37288 whole entry): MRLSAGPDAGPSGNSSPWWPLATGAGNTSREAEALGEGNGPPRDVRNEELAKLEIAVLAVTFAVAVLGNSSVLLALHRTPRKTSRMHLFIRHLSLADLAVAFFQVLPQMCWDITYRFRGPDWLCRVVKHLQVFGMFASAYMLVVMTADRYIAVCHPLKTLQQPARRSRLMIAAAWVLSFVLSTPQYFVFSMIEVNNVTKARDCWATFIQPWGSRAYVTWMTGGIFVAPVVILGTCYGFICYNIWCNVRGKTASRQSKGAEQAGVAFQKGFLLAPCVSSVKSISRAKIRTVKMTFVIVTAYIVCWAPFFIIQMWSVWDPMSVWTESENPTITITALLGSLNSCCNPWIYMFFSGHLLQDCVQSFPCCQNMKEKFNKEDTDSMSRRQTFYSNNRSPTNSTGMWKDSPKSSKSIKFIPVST
Lysosomal acid glucosylceramidase, sequence (P04062 whole entry): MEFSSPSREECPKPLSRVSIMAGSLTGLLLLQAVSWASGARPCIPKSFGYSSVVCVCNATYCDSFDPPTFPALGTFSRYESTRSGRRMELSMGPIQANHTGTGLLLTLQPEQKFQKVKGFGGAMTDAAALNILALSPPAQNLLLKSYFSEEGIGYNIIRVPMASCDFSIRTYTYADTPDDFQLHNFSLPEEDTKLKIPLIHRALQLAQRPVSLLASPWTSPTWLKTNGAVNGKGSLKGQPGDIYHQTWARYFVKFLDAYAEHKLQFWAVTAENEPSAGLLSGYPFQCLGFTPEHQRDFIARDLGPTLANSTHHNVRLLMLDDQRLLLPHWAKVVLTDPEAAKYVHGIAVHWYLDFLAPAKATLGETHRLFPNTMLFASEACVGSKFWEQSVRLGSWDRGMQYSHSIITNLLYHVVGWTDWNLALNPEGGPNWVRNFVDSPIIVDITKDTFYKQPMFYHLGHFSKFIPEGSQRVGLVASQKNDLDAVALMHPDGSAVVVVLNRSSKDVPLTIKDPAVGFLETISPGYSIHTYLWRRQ
Scavenger receptor class B member 1, sequence (Q61009 whole entry): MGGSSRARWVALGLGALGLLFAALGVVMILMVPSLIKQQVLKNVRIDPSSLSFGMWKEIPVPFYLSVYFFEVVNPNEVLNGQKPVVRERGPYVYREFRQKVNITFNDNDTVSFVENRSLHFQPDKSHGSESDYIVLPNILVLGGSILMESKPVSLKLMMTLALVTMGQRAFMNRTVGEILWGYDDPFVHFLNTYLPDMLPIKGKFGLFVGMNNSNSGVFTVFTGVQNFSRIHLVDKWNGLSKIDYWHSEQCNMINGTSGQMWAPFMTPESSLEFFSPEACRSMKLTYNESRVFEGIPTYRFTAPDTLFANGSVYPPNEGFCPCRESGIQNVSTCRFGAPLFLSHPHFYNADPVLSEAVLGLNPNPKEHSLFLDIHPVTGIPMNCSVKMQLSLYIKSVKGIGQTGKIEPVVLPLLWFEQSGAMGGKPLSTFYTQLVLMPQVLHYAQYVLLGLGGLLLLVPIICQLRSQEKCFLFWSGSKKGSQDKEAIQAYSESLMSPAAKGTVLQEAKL
DNA dC->dU-editing enzyme APOBEC-3G, sequence (Q9HC16 whole entry): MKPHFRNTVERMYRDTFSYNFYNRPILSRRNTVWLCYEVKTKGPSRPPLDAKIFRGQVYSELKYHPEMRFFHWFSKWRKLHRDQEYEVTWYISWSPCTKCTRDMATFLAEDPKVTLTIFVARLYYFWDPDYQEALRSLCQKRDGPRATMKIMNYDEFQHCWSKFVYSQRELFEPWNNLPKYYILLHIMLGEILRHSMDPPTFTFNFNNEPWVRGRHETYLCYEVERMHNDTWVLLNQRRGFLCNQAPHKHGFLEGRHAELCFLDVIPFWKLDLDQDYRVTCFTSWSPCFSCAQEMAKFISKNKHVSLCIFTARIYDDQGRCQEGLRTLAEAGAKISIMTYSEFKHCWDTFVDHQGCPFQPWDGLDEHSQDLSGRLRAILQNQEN
Phospholipase A2, sequence (P04054 whole entry): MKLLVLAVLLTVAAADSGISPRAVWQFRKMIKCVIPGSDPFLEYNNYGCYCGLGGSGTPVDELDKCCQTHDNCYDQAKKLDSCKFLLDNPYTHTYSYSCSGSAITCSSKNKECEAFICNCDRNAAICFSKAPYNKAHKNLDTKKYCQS
FAD-linked sulfhydryl oxidase ALR, sequence (P55789 whole entry): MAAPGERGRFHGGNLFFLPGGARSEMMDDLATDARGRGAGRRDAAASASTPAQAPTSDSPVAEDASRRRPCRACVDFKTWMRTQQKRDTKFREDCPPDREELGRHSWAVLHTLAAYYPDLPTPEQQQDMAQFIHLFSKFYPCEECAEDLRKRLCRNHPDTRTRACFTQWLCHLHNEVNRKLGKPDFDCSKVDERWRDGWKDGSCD
Glyceraldehyde-3-phosphate dehydrogenase, sequence (P04406 whole entry): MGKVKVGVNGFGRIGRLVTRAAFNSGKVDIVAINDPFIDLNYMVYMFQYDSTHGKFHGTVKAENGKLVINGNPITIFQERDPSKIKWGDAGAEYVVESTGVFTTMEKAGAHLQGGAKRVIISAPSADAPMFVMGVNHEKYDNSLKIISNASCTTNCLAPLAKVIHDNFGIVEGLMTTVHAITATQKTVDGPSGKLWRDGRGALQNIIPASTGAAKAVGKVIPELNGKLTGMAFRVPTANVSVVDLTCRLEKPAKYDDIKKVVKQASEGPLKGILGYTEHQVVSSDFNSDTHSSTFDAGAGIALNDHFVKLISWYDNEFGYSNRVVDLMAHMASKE

Compound: N#Cc1cc(Oc2ccccc2)c(-n2nnc3ccccc32)cc1C#N
- IC50 [1]: > 100 µM (inactive)

Compound: Cn1cc(NC(=O)Nc2ccc(C(F)(F)F)cc2)c(C(F)(F)F)n1
- EC50 [2]: > 55.7 µM (not active)
- EC50 [3]: > 55.7 µM (not active)

Compound: COCc1cc(C)nc(NC2CCCCC2)c1C#N
- EC50 [4]: > 50 µM (not active)

Compound: O=C(c1ccccc1C(F)(F)F)n1c2ccccc2c2ccccc21
- EC50 [5]: > 500 µM (not active)

Compound: NS(=O)(=O)c1ccc2[nH]c3c(c2c1)CCCC3
- IC50 [6]: > 100 µM (not active)

Compound: CC(Sc1ccc(Cl)cc1)C(=O)Nc1ccc(S(=O)(=O)N2CCOCC2)cc1 (stereo not drawn)
- EC50 [7]: > 29.9 µM (not active)
- EC50 [8]: > 29.9 µM (not active)

Compound: Cc1ccc(NC(=O)c2ccc3c(c2)CCN3S(C)(=O)=O)cc1C
- AC50 [9]: 23.8 µM (active)

Compound: COC(C(=O)Nc1ccc(S(=O)(=O)Nc2ccc(F)cc2)cc1)c1ccccc1 (stereo not drawn)
- EC50 [7]: > 29.9 µM (not active)
- EC50 [8]: > 29.9 µM (not active)

Compound: Cc1cccc(NC(=O)CSc2ccc(-c3ccco3)nn2)c1
- IC50 [10]: > 100 µM (inactive)
- IC50 [11]: > 100 µM (inactive)

Compound: Cc1cc(C)c(NC2=NS(=O)(=O)c3ccccc32)c(C)c1
- EC50 [2]: > 55.7 µM (not active)
- EC50 [3]: > 55.7 µM (not active)

Compound: COc1ccc(/C=C2/SC(=O)N(CCCCCC(=O)Nc3ccccc3C(=O)O)C2=S)cc1
- IC50 [12]: 13.8 µM (active)
- IC50 [13]: > 50 µM (active)
- IC50 [14]: 14.5 µM (active)
- IC50 [15]: 5.25 µM (active)
- AC50 [16]: 3.05 µM (active)

Compound: Cc1ccc2c(c1)nnc1nnc(SCC(=O)O)n12
- EC50 [17]: > 53 µM (inactive)
- IC50 [1]: > 100 µM (inactive)
- IC50 [18]: 9.05 µM (active)
- IC50 [19]: 10.9 µM (active)

Compound: COc1cc([N+](=O)[O-])ccc1NC(=O)COC(=O)c1ccc2c(c1)NC(=O)CS2
- IC50 [10]: 5.18 µM (active)
- IC50 [11]: > 100 µM (inactive)

Compound: Sc1nnc(COc2ccccc2)n1/N=C/c1ccncc1
- IC50 [20]: 3.12 µM (active)
- IC50 [21]: > 100 µM (inactive)

From ChEMBL document CHEMBL1201862, “PubChem BioAssay data set” (2004)
